# System: Agrobacterium tumefaciens
# Test: Antitumor activity against Agrobacterium tumefaciens B6-induced crown gall tumor in potato tubers at 10000 uM after 15 to 20 days by crown gall tumor potato disk test
# Type: functional
row,SMILES,inhibition at 10000 µM
1,C/C(=C\Cc1cc(O)cc(C)c1O)CC(=O)C[C@@]1(C)CC2C(O)=CC(O)=C[C@]1(C)C2(C)C [MEDITERRANEOL A],88%
2,COc1cc(C)c(O)c(C/C=C(\C)CC(=O)CCCC(=O)C=C(C)C)c1 [MEDITERRANENONE],76%
3,Cc1cc(O)cc2c1OC(C)(CC1=C3C[C@@H](O)C(C)(C)OC1C(C)(C)CCCC3=O)CC2 (stereo partly drawn) [CYSTOSEIROL],73%

# Reference: ChEMBL document CHEMBL1158942, “Novel meroterpenoids from Cystoseira mediterranea: use of the crown-gall bioassay as a primary screen for lipophilic antineoplastic agents” (1991)
